Laboratory results as given in patent publication US20110301209A1, “METHODS AND COMPOSITIONS FOR THE TREATMENT OF CANCER, TUMORS, AND TUMOR-RELATED DISORDERS” (TRAGARA PHARMACEUTICALS, INC., priority 2007, published 2011).

Legend:
[1] = Oral pharmacokinetics, all species examined; assay type: in vivo; settings: orally administered; mice, rats, dogs, and monkeys
Experimental: Peak plasma concentrations were achieved between 1 and 3 hours after a dose of 5 mg/kg. […] Oral availability was greatest in rodent, and was reduced in dogs and monkeys (59 and 34% respectively).

[2] = in vivo; settings: female, athymic nude, mouse, in vivo, po
Text: (§1) The models evaluated included MV522, A549 and H460 NSCLC. […] The experiments used a tumor growth delay (TGD) endpoint based on median time to endpoint, i.e., tumor volume of 1000-2000 mm^3, and treatments were compared to untreated controls using the Logrank test for statistical significance.

[3] = test system: MV522 NSCLC; experiment: in vivo; settings: MV522
Text: as §1

[4] = test system: A549 NSCLC; experiment: A549 NSCLC xenograft, tumor growth delay; assay type: in vivo, female athymic nude mice
Text: as §1

[5] = test system: H460 NSCLC; experiment: H460 NSCLC xenograft, tumor growth delay; assay type: in vivo, female athymic nude mice
Text: as §1

[6] = cited from earlier work
[7] = patients taking erlotinib; cited from earlier work

CCOc1ccc(-c2cc(C)cn2-c2ccc(S(N)(=O)=O)cc2)cc1
Absorption after oral administration [1]: rapidly absorbed | MTD [2]: 30 mg/kg | Tumor growth delay (TGD) ([3]; 10 mg/kg oral daily): 19.1 days | Tumor growth delay (TGD), percent ([3]; 10 mg/kg oral daily): 57% | Tumor growth delay (TGD) ([3]; 30 mg/kg (MTD) oral daily): 32.1 days | Tumor growth delay (TGD), percent ([3]; 30 mg/kg (MTD) oral daily): 96% | Tumor growth delay (TGD) ([4]; at its MTD, oral daily): 24.3 days | Tumor growth delay (TGD), percent ([4]; at its MTD, oral daily): 62% | Tumor growth delay (TGD) ([5]; COX-2 inhibitor monotherapy): 4.0 days | Tumor growth delay (TGD), percent ([5]; COX-2 inhibitor monotherapy): 30%

CC(=O)O[C@@]12CO[C@@H]1C[C@H](O)[C@@]1(C)C(=O)[C@H](O)C3=C(C)[C@@H](OC(=O)[C@H](O)[C@@H](NC(=O)OC(C)(C)C)c4ccccc4)C[C@@](O)([C@@H](OC(=O)c4ccccc4)[C@H]21)C3(C)C [Docetaxel]
Tumor growth delay (TGD) ([5]; 25 mg/kg iv weekly x3): 10.8 days | Tumor growth delay (TGD), percent ([5]; 25 mg/kg iv weekly x3): 80% | Solubility in water [6]: practically insoluble

Cc1ccc(-c2cc(C(F)(F)F)nn2-c2ccc(S(N)(=O)=O)cc2)cc1 [celecoxib, reference compound]
Tumor growth delay (TGD) ([4]; 100 mg/kg): 15.4 days | Tumor growth delay (TGD), percent ([4]; 100 mg/kg): 39% | Tumor growth delay (TGD) ([5]; COX-2 inhibitor monotherapy): 3.0 days | Tumor growth delay (TGD), percent ([5]; COX-2 inhibitor monotherapy): 22%

C#Cc1cccc(Nc2ncnc3cc(OCCOC)c(OCCOC)cc23)c1 [erlotinib, N-(3-ethynylphenyl)-6,7-bis(2-methoxyethoxy)quinazolin-4-amine]
Patients with common side effects (rash, diarrhea, poor appetite, fatigue, shortness of breath, cough, nausea and vomiting) [7]: greater than 30 % of patients
